Experimental data: ChEMBL document CHEMBL4507295 (2021)

Tests used:
[1] = tested on: Tyrosine-protein kinase ABL1 (Homo sapiens), P00519 [F317I]; settings: Compound concentration 1000.0 nM
[2] = tested on: Tyrosine-protein kinase ABL1 (Homo sapiens), P00519 [F317I]; settings: Compound concentration 1000.0 nM; remark: listed apart in the source
[3] = molecular target: Calcium/calmodulin-dependent protein kinase type 1D (Homo sapiens) (UniProt Q8IU85); settings: Compound concentration 1000.0 nM
[4] = molecular target: Calcium/calmodulin-dependent protein kinase type II subunit beta (Homo sapiens) (UniProt Q13554); settings: Compound concentration 1000.0 nM
[5] = molecular target: Tyrosine-protein kinase CSK (Homo sapiens) (UniProt P41240); settings: Compound concentration 1000.0 nM
[6] = tested on: Epidermal growth factor receptor (Homo sapiens), P00533 [UNDEFINED MUTATION]; settings: Compound concentration 1000.0 nM
[7] = tested on: Epidermal growth factor receptor (Homo sapiens), P00533 [L858R,T790M]; settings: Compound concentration 1000.0 nM
[8] = molecular target: Ephrin type-A receptor 5 (Homo sapiens) (UniProt P54756); settings: Compound concentration 1000.0 nM
[9] = molecular target: Cyclin-G-associated kinase (Homo sapiens) (UniProt O14976); settings: Compound concentration 1000.0 nM
[10] = molecular target: Rhodopsin kinase GRK1 (Homo sapiens) (UniProt Q15835); settings: Compound concentration 1000.0 nM
[11] = molecular target: Glycogen synthase kinase-3 beta (Homo sapiens) (UniProt P49841); settings: Compound concentration 1000.0 nM
[12] = molecular target: Homeodomain-interacting protein kinase 2 (Homo sapiens) (UniProt Q9H2X6); settings: Compound concentration 1000.0 nM
[13] = tested on: Mast/stem cell growth factor receptor Kit (Homo sapiens), P10721 [V559D,V654A]; settings: Compound concentration 1000.0 nM
[14] = molecular target: LIM domain kinase 2 (Homo sapiens) (UniProt P53671); settings: Compound concentration 1000.0 nM
[15] = molecular target: Dual specificity mitogen-activated protein kinase kinase 2 (Homo sapiens) (UniProt P36507); settings: Compound concentration 1000.0 nM
[16] = molecular target: Serine/threonine-protein kinase 3 (Homo sapiens) (UniProt Q13188); settings: Compound concentration 1000.0 nM
[17] = molecular target: Serine/threonine-protein kinase 38-like (Homo sapiens) (UniProt Q9Y2H1); settings: Compound concentration 1000.0 nM
[18] = molecular target: Cyclin-dependent kinase 16 (Homo sapiens) (UniProt Q00536); settings: Compound concentration 1000.0 nM
[19] = molecular target: Cyclin-dependent kinase 2 homolog (Plasmodium falciparum (isolate 3D7)) (UniProt P61075); settings: Compound concentration 1000.0 nM
[20] = molecular target: Phosphorylase b kinase gamma catalytic chain, skeletal muscle/heart isoform (Homo sapiens) (UniProt Q16816); settings: Compound concentration 1000.0 nM
[21] = tested on: Phosphatidylinositol 4,5-bisphosphate 3-kinase catalytic subunit alpha isoform (Homo sapiens), P42336 [E545A]; settings: Compound concentration 1000.0 nM
[22] = tested on: Phosphatidylinositol 4,5-bisphosphate 3-kinase catalytic subunit alpha isoform (Homo sapiens), P42336 [I800L]; settings: Compound concentration 1000.0 nM
[23] = molecular target: Serine/threonine-protein kinase pim-2 (Homo sapiens) (UniProt Q9P1W9); settings: Compound concentration 1000.0 nM
[24] = molecular target: Serine/threonine-protein kinase PLK1 (Homo sapiens) (UniProt P53350); settings: Compound concentration 1000.0 nM
[25] = molecular target: Serine/threonine-protein kinase PLK4 (Homo sapiens) (UniProt O00444); settings: Compound concentration 1000.0 nM
[26] = molecular target: Protein kinase C iota type (Homo sapiens) (UniProt P41743); settings: Compound concentration 1000.0 nM
[27] = molecular target: cAMP-dependent protein kinase catalytic subunit PRKX (Homo sapiens) (UniProt P51817); settings: Compound concentration 1000.0 nM
[28] = molecular target: Serine/threonine-protein kinase RIO2 (Homo sapiens) (UniProt Q9BVS4); settings: Compound concentration 1000.0 nM
[29] = molecular target: Uncharacterized serine/threonine-protein kinase SBK3 (Homo sapiens) (UniProt P0C264); settings: Compound concentration 1000.0 nM
[30] = molecular target: Serine/threonine-protein kinase Sgk2 (Homo sapiens) (UniProt Q9HBY8); settings: Compound concentration 1000.0 nM
[31] = molecular target: Proto-oncogene tyrosine-protein kinase Src (Homo sapiens) (UniProt P12931); settings: Compound concentration 1000.0 nM
[32] = molecular target: Tyrosine-protein kinase Srms (Homo sapiens) (UniProt Q9H3Y6); settings: Compound concentration 1000.0 nM
[33] = molecular target: SRSF protein kinase 2 (Homo sapiens) (UniProt P78362); settings: Compound concentration 1000.0 nM
[34] = molecular target: T1, GABA-A receptor; anion channel (Rattus norvegicus) (UniProt O09028+P15431+P18506+P18508+P19969+P20236+P23574+P23576+P28471+P28473+P30191+P62813+P63079+P63138+Q91ZM7+Q9ES14); settings: Compound concentration 10.0 uM
[35] = molecular target: Histamine H2 receptor (Homo sapiens) (UniProt P25021); settings: Compound concentration 10.0 uM
[36] = molecular target: T1, GABA-A receptor; anion channel (Rattus norvegicus); settings: Compound concentration 10.0 uM; remark: listed apart in the source

Chain of Tyrosine-protein kinase ABL1 (Homo sapiens), P00519 [F317I] (P00519 whole entry F317I): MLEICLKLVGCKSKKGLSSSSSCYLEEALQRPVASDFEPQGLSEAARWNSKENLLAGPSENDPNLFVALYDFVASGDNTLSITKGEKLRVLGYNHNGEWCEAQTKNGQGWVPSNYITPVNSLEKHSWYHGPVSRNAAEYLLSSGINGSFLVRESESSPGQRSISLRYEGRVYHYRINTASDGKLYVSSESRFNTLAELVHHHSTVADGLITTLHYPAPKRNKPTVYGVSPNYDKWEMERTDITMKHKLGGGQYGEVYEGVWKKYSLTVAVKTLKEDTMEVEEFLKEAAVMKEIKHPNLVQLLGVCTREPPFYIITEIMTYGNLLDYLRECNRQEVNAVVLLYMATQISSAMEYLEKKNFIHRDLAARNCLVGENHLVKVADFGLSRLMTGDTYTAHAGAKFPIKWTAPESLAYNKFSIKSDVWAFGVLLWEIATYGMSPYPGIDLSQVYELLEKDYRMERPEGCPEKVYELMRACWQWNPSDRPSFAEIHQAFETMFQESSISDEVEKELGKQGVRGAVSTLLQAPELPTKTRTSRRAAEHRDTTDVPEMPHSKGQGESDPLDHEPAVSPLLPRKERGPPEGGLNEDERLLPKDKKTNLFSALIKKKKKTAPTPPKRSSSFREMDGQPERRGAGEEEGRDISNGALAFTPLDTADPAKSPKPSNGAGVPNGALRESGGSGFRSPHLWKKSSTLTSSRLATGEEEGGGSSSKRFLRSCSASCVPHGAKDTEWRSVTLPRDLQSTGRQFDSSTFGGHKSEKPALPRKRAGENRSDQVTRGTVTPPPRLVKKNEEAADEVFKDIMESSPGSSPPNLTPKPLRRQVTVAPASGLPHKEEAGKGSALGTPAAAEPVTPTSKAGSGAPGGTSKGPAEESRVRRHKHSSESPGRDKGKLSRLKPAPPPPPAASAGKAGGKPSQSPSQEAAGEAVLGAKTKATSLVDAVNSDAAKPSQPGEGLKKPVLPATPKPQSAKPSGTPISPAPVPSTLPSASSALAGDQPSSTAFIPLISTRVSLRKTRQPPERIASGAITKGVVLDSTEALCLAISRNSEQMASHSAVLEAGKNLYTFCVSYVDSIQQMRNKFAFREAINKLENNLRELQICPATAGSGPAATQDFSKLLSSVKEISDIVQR
Chain of Cyclin-dependent kinase 2 homolog (Plasmodium falciparum (isolate 3D7)) (P61075 whole entry, canonical isoform): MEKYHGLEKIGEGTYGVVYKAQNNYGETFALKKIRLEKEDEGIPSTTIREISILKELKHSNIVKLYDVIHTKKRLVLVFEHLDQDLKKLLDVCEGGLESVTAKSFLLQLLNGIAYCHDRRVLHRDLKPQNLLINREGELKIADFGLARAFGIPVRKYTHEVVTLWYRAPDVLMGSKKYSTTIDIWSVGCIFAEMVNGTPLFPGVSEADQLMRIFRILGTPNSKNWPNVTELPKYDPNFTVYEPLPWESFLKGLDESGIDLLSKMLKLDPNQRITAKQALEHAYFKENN
Chain of Serine/threonine-protein kinase RIO2 (Homo sapiens) (Q9BVS4 whole entry, looked up): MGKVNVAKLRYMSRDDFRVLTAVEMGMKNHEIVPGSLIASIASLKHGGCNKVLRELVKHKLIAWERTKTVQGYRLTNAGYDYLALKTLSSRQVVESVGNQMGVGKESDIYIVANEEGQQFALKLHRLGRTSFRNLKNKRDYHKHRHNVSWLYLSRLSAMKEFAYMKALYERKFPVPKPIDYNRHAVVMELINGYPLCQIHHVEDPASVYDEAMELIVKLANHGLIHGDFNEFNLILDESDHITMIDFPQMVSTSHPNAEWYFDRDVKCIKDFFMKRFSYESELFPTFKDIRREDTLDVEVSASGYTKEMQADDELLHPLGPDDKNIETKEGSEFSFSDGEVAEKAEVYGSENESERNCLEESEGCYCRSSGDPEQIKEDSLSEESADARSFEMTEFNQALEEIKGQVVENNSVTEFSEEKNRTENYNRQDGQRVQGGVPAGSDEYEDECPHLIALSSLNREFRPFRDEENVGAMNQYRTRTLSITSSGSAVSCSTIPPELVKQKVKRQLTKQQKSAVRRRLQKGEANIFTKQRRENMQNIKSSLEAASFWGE
Chain of Serine/threonine-protein kinase 38-like (Homo sapiens) (Q9Y2H1 2-464 limits assumed): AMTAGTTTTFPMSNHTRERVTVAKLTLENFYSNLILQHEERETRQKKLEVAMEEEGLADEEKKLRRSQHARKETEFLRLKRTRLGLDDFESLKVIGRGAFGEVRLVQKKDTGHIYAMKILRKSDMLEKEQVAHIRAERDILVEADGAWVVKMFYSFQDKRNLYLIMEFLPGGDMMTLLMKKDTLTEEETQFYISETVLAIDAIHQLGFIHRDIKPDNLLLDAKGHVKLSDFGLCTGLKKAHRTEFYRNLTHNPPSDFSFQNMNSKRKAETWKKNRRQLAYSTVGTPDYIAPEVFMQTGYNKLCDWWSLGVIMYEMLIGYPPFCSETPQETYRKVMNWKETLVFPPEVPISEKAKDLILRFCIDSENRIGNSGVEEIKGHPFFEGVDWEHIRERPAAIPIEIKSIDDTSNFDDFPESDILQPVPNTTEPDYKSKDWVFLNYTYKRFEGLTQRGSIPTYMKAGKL
Chain of Cyclin-G-associated kinase (Homo sapiens) (O14976 whole entry): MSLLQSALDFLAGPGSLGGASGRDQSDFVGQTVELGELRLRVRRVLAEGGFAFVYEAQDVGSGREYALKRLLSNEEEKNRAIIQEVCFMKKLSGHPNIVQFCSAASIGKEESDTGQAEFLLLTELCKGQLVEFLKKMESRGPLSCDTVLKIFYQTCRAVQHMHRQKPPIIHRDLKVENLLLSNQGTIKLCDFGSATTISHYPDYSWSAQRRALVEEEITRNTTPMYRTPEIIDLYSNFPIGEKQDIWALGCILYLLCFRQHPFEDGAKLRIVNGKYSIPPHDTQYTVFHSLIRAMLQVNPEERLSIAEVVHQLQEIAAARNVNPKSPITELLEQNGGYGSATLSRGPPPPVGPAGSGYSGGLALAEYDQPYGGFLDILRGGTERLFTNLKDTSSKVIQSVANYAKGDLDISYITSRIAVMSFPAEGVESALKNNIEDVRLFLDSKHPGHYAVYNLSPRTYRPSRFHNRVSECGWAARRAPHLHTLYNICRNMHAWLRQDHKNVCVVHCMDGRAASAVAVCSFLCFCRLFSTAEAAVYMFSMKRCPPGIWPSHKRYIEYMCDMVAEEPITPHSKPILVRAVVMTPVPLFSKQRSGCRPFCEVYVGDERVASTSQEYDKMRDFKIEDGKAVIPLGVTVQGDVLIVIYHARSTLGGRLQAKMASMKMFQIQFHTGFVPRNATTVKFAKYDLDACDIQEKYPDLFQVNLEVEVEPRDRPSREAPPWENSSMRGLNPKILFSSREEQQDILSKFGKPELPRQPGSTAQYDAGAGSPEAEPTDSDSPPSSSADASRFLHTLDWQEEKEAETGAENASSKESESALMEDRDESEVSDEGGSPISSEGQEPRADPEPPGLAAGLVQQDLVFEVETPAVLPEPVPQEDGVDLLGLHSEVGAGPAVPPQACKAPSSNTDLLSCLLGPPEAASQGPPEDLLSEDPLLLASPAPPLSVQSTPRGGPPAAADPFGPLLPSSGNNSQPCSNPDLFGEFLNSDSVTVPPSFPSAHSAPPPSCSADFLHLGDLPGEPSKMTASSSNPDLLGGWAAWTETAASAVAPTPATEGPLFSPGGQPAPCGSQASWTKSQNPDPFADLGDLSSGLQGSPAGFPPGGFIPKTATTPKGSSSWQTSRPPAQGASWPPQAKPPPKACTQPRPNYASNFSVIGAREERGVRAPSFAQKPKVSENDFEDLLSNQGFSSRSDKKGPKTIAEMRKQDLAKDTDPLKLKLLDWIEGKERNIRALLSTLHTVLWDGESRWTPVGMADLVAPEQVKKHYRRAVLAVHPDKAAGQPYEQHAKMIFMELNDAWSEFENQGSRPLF
Chain of Tyrosine-protein kinase CSK (Homo sapiens) (P41240 2-450 limits assumed): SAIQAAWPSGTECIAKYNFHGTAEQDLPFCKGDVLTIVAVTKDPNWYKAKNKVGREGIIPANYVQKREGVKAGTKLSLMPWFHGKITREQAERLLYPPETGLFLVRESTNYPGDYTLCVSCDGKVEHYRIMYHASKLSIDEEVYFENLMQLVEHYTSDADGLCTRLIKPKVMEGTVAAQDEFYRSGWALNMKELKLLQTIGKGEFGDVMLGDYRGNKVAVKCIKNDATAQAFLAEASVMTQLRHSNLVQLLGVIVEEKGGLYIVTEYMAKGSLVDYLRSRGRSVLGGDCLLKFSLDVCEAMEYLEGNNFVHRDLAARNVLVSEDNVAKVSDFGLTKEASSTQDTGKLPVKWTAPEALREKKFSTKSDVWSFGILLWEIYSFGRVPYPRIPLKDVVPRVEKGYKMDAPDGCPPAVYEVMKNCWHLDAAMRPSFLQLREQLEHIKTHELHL
Chain of Calcium/calmodulin-dependent protein kinase type 1D (Homo sapiens) (Q8IU85 whole entry, looked up): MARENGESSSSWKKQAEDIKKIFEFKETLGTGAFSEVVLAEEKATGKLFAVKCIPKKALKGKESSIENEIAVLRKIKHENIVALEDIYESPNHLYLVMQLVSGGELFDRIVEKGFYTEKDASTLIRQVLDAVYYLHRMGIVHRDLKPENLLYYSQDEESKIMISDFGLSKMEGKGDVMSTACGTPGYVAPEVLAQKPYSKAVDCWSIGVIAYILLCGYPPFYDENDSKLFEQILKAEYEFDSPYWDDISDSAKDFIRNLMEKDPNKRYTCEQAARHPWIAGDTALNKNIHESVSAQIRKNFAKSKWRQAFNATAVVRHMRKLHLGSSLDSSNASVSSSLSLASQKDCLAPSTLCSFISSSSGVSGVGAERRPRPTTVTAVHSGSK
Chain of Dual specificity mitogen-activated protein kinase kinase 2 (Homo sapiens) (P36507 whole entry): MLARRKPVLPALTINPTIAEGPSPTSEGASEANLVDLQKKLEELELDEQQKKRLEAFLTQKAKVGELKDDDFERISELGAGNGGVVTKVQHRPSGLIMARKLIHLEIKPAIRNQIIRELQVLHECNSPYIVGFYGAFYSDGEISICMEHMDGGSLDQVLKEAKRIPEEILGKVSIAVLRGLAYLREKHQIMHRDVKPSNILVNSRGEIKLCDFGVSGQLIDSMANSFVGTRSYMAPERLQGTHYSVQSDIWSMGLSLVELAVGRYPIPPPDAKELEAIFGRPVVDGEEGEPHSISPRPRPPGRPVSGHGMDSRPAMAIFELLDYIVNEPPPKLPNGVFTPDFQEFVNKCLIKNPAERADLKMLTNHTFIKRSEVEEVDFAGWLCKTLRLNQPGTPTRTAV

N#CC1(c2ccccn2)CCN(Cc2cc(C(=O)N3CCCC3)c(=O)n3ccccc23)CC1
inactive: residual activity [1] 87% | residual activity [2] 75% | residual activity [3] 100% | residual activity [4] 89% | residual activity [5] 91% | residual activity [6] 94% | residual activity [7] 100% | residual activity [8] 100% | residual activity [9] 100% | residual activity [10] 85% | residual activity [11] 100% | residual activity [12] 100% | residual activity [13] 100% | residual activity [14] 82% | residual activity [15] 91% | residual activity [16] 92% | residual activity [17] 90% | residual activity [18] 100% | residual activity [19] 100% | residual activity [20] 100% | residual activity [21] 78% | residual activity [22] 72% | residual activity [23] 77% | residual activity [24] 100% | residual activity [25] 87% | residual activity [26] 87% | residual activity [27] 96% | residual activity [28] 95% | residual activity [29] 100% | residual activity [30] 100% | residual activity [31] 56% | residual activity [32] 100% | residual activity [33] 84% | inhibition [34] 23.2% | inhibition [35] 3.1% | inhibition [36] 21.8%

N#CC1(c2ccccn2)CCN(Cc2cc(C(=O)O)c(=O)n3ccccc23)CC1 [MSD-M1PAM]
inactive: residual activity [1] 65% | residual activity [2] 81% | residual activity [3] 100% | residual activity [4] 100% | residual activity [5] 100% | residual activity [6] 80% | residual activity [7] 71% | residual activity [8] 89% | residual activity [9] 100% | residual activity [10] 84% | residual activity [11] 100% | residual activity [12] 66% | residual activity [13] 100% | residual activity [14] 100% | residual activity [15] 100% | residual activity [16] 98% | residual activity [17] 80% | residual activity [18] 67% | residual activity [19] 68% | residual activity [20] 100% | residual activity [21] 100% | residual activity [22] 90% | residual activity [23] 100% | residual activity [24] 70% | residual activity [25] 90% | residual activity [26] 100% | residual activity [27] 100% | residual activity [28] 92% | residual activity [29] 72% | residual activity [30] 86% | residual activity [31] 100% | residual activity [32] 93% | residual activity [33] 100% | inhibition [34] 20.2% | inhibition [35] 11.7% | inhibition [36] 8.92%
